For orientation: IC50 means the concentration that gives 50% inhibition.

Here are results for two compounds from patent US10017523B2, “NAMPT inhibitors and methods” (Genzyme Corporation, priority 2014, dated 2018).

One series has as its target T1, Recombinant NAMPT enzyme (Homo sapiens, UniProt P43490).
T1 construct: purchased MBL
As to the kind of experiment: Inhibition of NAMPT enzymatic activity. The format is biochemical. Conditions: for IC50: 6 hours at 37° C., NMN product detected. On the procedure: Recombinant NAMPT enzyme (MBL) was briefly pre-incubated in the absence or presence of inhibitor followed by addition of nicotinamide. Enzymatic reaction was allowed to proceed for 6 hours at 37° C. Reaction was terminated and NMN reaction product detected using the method as described in: Zhang R Y, Qin Y, Lv X Q, Wang P, Xu T Y, Zhang L, Miao C Y., Anal. Biochem. 2011 May 1; 412(1):18-25.
(§1) The 50% inhibitory concentration (IC50) is the concentration at which 50% of the maximal activity was inhibited.

For the next series, the system named is primary human B cells. As to the kind of experiment: Anti-proliferative activity on B cells (anti-IgM stimulated, CellTiterGlo). The note with it: B-cell, 72 h, anti-IgM 10 ug/ml. The format is cell-based. How it is done: Fresh primary human B cells obtained from Analytical Biological Services (Wilmington, Del.) were diluted to 1×10^^6 cells per ml in AIM-V medium (Invitrogen), and stimulated with anti-IgM (10 ug/ml) (KPL) in the absence or presence of inhibitor for 72 hours at 37° C./5% CO2 prior to viability determination using CellTiterGlo (Promega) per manufacturer's instruction.
as §1
(In general: ATP-based viability assays read luminescence as a measure of living cells.)

In the next series the test system is primary human T cells. As to the kind of experiment: Anti-proliferative activity on T cells (CD3/CD28 stimulated, CellTiterGlo). The format is cell-based. The note with it: T-cell, 72 h, CD3/CD28 beads. On the procedure:
Fresh primary human T cells obtained from Analytical Biological Services (Wilmington, Del.) were diluted to 1×10^^6 cells per ml in AIM-V medium (Invitrogen), and stimulated with CD3/CD28 beads (Invitrogen) in the absence or presence of inhibitor for 72 hours at 37° C./5% CO2 prior to viability determination using CellTiterGlo (Promega) per manufacturer's instruction.
as §1

The subject of series [1] is acute T-cell leukemia (JURKAT). As to the kind of experiment: Anti-proliferative activity on JURKAT cell line. In kind it is cell-based. The note with it: Homo sapiens, 72 h, CellTiterGlo. How it is done:
(§2) Leukemia/Lymphoma cell lines (ATCC) were diluted in vendor-recommended media and incubated in the absence or presence of inhibitor for 72 hours at 37° C./5% CO2 prior to viability determination using CellTiterGlo (Promega) per manufacturer's instruction. The human cell lines studied include acute T-cell leukemia (JURKAT), chronic myelogenous leukemia (K562), and B-cell acute lymphocytic leukemia (NALM6 and SUP-B15).

In series [2] the test system is chronic myelogenous leukemia (K562). As to the kind of experiment: Anti-proliferative activity on K562 cell line. In kind it is cell-based. Conditions: Homo sapiens, K562, 72 h, CellTiterGlo. On the procedure: as §2
Series [3] has as its system B-cell acute lymphocytic leukemia (NALM6). As to the kind of experiment: Anti-proliferative activity on NALM6 cell line. The format is cell-based. The note with it: Homo sapiens, NALM-6, 72 h, CellTiterGlo. On the procedure:
as §2

Series [4] deals with B-cell acute lymphocytic leukemia (SUP-B15). As to the kind of experiment: Anti-proliferative activity on SUP-B15 cell line. In kind it is cell-based. Conditions: Homo sapiens, SUP-B15, 72 h, CellTiterGlo. On the procedure: as §2
Another series has as its system Sup-B15 cells. As to the kind of experiment: Mechanism of action: NMN rescue of viability. Conditions: 200 μM NMN, 72 hours. In kind it is cell-based, human. How it is done: Sup-B15 cells (ATCC) were incubated in media lacking or containing 200 μM nicotinamide mononucleotide (NMN) (Sigma) in the absence or presence of inhibitor for 72 hours at 37° C./5% CO2 prior to viability determination using CellTiterGlo (Promega) per manufacturer's instruction.

The target in another series is T2, Sup-B15 cell extract (Homo sapiens, UniProt P43490).
T2 construct: host or cells: Sup-B15 cells
T2 sequence (P43490 whole entry): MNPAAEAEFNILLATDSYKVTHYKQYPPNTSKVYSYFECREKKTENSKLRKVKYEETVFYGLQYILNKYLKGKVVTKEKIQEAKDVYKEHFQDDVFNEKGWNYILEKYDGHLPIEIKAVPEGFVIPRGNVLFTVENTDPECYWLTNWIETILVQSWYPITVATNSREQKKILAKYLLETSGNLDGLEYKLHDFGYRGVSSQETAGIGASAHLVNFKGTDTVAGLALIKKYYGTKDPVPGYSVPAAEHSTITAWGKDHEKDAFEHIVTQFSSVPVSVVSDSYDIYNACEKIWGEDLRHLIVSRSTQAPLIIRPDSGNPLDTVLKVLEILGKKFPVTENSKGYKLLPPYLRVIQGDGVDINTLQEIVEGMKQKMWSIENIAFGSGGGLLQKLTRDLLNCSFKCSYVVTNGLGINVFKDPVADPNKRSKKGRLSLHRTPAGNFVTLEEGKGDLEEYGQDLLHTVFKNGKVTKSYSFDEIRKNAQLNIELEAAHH
As to the kind of experiment: Chemical proteomics pull-down from Sup-B15 cell extract. In kind it is binding. Conditions: biotinylated derivative, streptavidin beads, elution with free compound, LC/MS. On the procedure:
Chemical proteomics. Sup-B15 cell extract was incubated with a biotinylated derivative of 4-(1′-isopropyl-4-oxospiro[chroman-2,4′-piperidin]-6-yl)-N-((3-methylisoxazol-5-yl)methyl)benzamide, followed by collection of compound/protein complexes with streptavidin beads (Invitrogen). […] Following SDS-PAGE, one prominent band was excised and identified by LC/MS as NAMPT.

The test system of a further series is NALM6 leukemia model. As to the kind of experiment: NALM6 leukemia study (survival). In kind it is in vivo, female CB17SCID/Crl mice. The note with it: i.p. twice daily for 35 days, compared with clofarabine. On the procedure: 4-(1′-isopropyl-4-oxospiro[chroman-2,4′-piperidin]-6-yl)-N-((3-methylisoxazol-5-yl)methyl)benzamide was tested in the NALM6 leukemia model. […] 5×10^^6 NALM-6 cells were injected via tail vein into female CB17SCID/Crl mice (Charles River). One week later, 4-(1′-isopropyl-4-oxospiro[chroman-2,4′-piperidin]-6-yl)-N-((3-methylisoxazol-5-yl)methyl)benzamide was administered by i.p. injection twice daily for 35 days. Clofarabine was administered once daily by i.p. injection once daily for 5 days for four weeks. Study endpoint was survival time, and mice were sacrificed upon appearance of systemic signs of severe disease such as paralysis or cachexia.

In another series the test system is HCT116 solid tumor model. As to the kind of experiment: HCT116 tumor growth study. In kind it is in vivo, Female athymic nude mice. The note with it: oral twice daily. On the procedure:
Tumor Growth Study: Female athymic nude mice (Crl:NU(Ncr)-Foxn1nu, Charles River) (n=10/group) were injected with 5×10^6 HCT116 cells, and treatment was initiated at average tumor size of 100 mm^3. 4-(1′-isopropyl-4-oxospiro[chroman-2,4′-piperidin]-6-yl)-N-((3-methylisoxazol-5-yl)methyl)benzamide and vehicle control were administered orally twice daily for 8 days. Tumor size was measured twice weekly with calipers.
4-(1′-isopropyl-4-oxospiro[chroman-2,4′-piperidin]-6-yl)-N-((3-methylisoxazol-5-yl)methyl)benzamide was also tested in the HCT116 solid tumor model.

T1 sequence (P43490 whole entry): as above

As for `Cc1cc(CNC(=O)c2ccc(-c3ccc4c(c3)C(=O)CC3(CCN(C(C)C)CC3)O4)cc2)on1` [4-(1′-isopropyl-4-oxospiro[chroman-2,4′-piperidin]-6-yl)-N-((3-methylisoxazol-5-yl)methyl)benzamide], the “inhibition of NAMPT enzyme activity” value at Recombinant NAMPT enzyme is on record as “potently inhibits NAMPT enzyme activity”. Besides, the IC50 on Recombinant NAMPT enzyme came to 0.0009 µM; in the series on primary human B cells it was 0.0227 µM; in the series with primary human T cells, 4.38 µM; in [1] it was 0.0179 µM; in [2] it was 0.0681 µM; in series [3], 0.015 µM. The compound further had an IC50 in [4] of 0.00244 µM. In addition, in the series with Sup-B15 cells, the “effect of NMN on anti-proliferative activity” value was “counteracted by NMN”. For the same compound, the molecular target identified entry at Sup-B15 cell extract is “nicotinamide phosphoribosyl transferase (NAMPT)”. In addition, in the series on NALM6 leukemia model, the survival result was “significant survival benefit in this xenograft model, in excess of the standard of care (clofarabine)”. In the series with HCT116 solid tumor model, the “mortality in the treated group” value stood at 10%. Also, in the series with HCT116 solid tumor model, the “persistence of tumor growth delay after dosing was stopped” value is listed as “persisted for at least one week after dosing was stopped”. Also, in the series with HCT116 solid tumor model, the tumor growth result is “significant tumor growth delay”.

For the compound `CCCCONC(=O)c1ccc(-c2ccc3c(c2)C(=O)CC2(CCN(C(C)C)CC2)O3)nc1` [N-butoxy-6-(1′-isopropyl-4-oxospiro[chroman-2,4′-piperidin]-6-yl)nicotinamide], the 50% inhibitory concentration (IC50) at Recombinant NAMPT enzyme was 0.0014 µM; in the series on primary human B cells it was 0.045 µM; with primary human T cells, 7.37 µM; in [1], 0.0233 µM; in [2], 0.282 µM; in series [3], 0.0156 µM. The same compound yielded a half-maximal inhibitory concentration (IC50) in [4] of 0.00302 µM.
